ChEMBL document CHEMBL1201862, “PubChem BioAssay data set” (2004)
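Grown in 96-well plates, cells were treated for 48 hours with each compound at five concentrations. Insufficient inhibition: endpoint recorded as highest concentration tested. At the GI50, growth is halved.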 Active and inactive are the calls of the source. Cut-off read from the data, not from the text of the source: active = GI50 up to about 1.1 µM and inactive = higher.

Tests used:
Experiment in all cases: growth of human tumour cells (NCI), 48 h
[1] = system: ACHN
[2] = system: CAKI-1
[3] = system: CCRF-CEM
[4] = system: COLO 205
[5] = system: DLD-1
[6] = system: DMS-114
[7] = system: DMS-273
[8] = system: EKVX
[9] = system: HCC 2998
[10] = system: HCT-116
[11] = system: HCT-15
[12] = system: HL-60
[13] = system: HOP-62
[14] = system: HOP-92
[15] = system: HT-29
[16] = system: IGROV-1
[17] = system: K562
[18] = system: KM-20L2
[19] = system: KM12
[20] = system: LOX IMVI
[21] = system: M14
[22] = system: M19-MEL
[23] = system: MOLT-4
[24] = system: Malme-3M
[25] = system: NCI-H226
[26] = system: NCI-H23
[27] = system: NCI-H460
[28] = system: NCI-H522
[29] = system: OVCAR-3
[30] = system: OVCAR-4
[31] = system: OVCAR-5
[32] = system: OVCAR-8
[33] = system: RPMI-8226
[34] = system: RXF 393
[35] = system: SF-268
[36] = system: SF-295
[37] = system: SK-MEL-28
[38] = system: SK-MEL-2
[39] = system: SK-MEL-5
[40] = system: SK-OV-3
[41] = system: SN12C
[42] = system: SNB-75
[43] = system: SR
[44] = system: SW-620
[45] = system: TK-10
[46] = system: U-251
[47] = system: UACC-257
[48] = system: UACC-62
[49] = system: UO-31
[50] = system: 786-0
[51] = system: A498
[52] = system: A549
[53] = system: BT-549
[54] = system: DU-145
[55] = system: Hs-578T
[56] = system: MCF7
[57] = system: MDA-MB-231
[58] = system: MDA-MB-435
[59] = system: MDA-N
[60] = system: NCI/ADR-RES
[61] = system: PC-3
[62] = system: SF-539
[63] = system: SNB-19
[64] = system: T47D

## O=C1CN2C(Cl)(Cl)C2(c2ccccc2)c2cc(Cl)ccc2N1CC(F)(F)F (configuration not stated)
[1]
  GI50: 33.7 µM (inactive)
[2]
  GI50: 49.3 µM (inactive)
[3]
  GI50: 18.7 µM (inactive)
[4]
  GI50: 19.5 µM (inactive)
[5]
  GI50: 16.4 µM (inactive)
[6]
  GI50: 27.2 µM (inactive)
[7]
  GI50: 24.8 µM (inactive)
[8]
  GI50: 32.2 µM (inactive)
[9]
  GI50: 16.6 µM (inactive)
[10]
  GI50: 21.6 µM (inactive)
[11]
  GI50: 25.8 µM
[12]
  GI50: > 10 µM (inactive)
[13]
  GI50: 22.6 µM (inactive)
[14]
  GI50: 13.6 µM (inactive)
[15]
  GI50: 18.4 µM (inactive)
[16]
  GI50: 26.8 µM (inactive)
[17]
  GI50: 27.8 µM (inactive)
[18]
  GI50: 32.5 µM (inactive)
[19]
  GI50: 19.6 µM (inactive)
[20]
  GI50: 17.5 µM (inactive)
[21]
  GI50: 24 µM (inactive)
[22]
  GI50: 38.3 µM (inactive)
[23]
  GI50: 19.1 µM (inactive)
[24]
  GI50: 22.7 µM (inactive)
[25]
  GI50: 26.2 µM (inactive)
[26]
  GI50: 26.2 µM (inactive)
[27]
  GI50: 16.1 µM (inactive)
[28]
  GI50: 17.4 µM (inactive)
[29]
  GI50: 18.8 µM (inactive)
[30]
  GI50: 18.5 µM (inactive)
[31]
  GI50: 56.1 µM (inactive)
[32]
  GI50: 33.4 µM (inactive)
[33]
  GI50: 32.4 µM (inactive)
[34]
  GI50: 21.9 µM (inactive)
[35]
  GI50: 38.4 µM (inactive)
[36]
  GI50: 18.5 µM (inactive)
[37]
  GI50: 22.6 µM (inactive)
[38]
  GI50: 24 µM (inactive)
[39]
  GI50: 17.9 µM (inactive)
[40]
  GI50: 51.2 µM (inactive)
[41]
  GI50: 16.9 µM (inactive)
[42]
  GI50: 13 µM (inactive)
[43]
  GI50: 28.9 µM (inactive)
[44]
  GI50: 39.4 µM (inactive)
[45]
  GI50: 50.2 µM (inactive)
[46]
  GI50: 18.8 µM (inactive)
[47]
  GI50: 19.6 µM (inactive)
[48]
  GI50: 56.1 µM (inactive)
[49]
  GI50: 36.3 µM (inactive)

## C=C1C(=O)O[C@@H]2C[C@@]3(C)CCC[C@H](C)C3=C[C@H]12 [HELENINE]
[50]
  GI50: 3.53 µM (inactive)
[51]
  GI50: 12.4 µM (inactive)
[52]
  GI50: 16.1 µM (inactive)
[1]
  GI50: 10 µM (inactive)
[53]
  GI50: 3.62 µM (inactive)
[2]
  GI50: 5.33 µM (inactive)
[3]
  GI50: 1.52 µM (inactive)
[4]
  GI50: 1.73 µM (inactive)
[54]
  GI50: 12 µM (inactive)
[8]
  GI50: 15 µM (inactive)
[9]
  GI50: 15.7 µM (inactive)
[10]
  GI50: 4.45 µM (inactive)
[11]
  GI50: 4.3 µM
[12]
  GI50: 1.98 µM (inactive)
[13]
  GI50: 12.3 µM (inactive)
[14]
  GI50: 2.43 µM (inactive)
[15]
  GI50: 4.29 µM (inactive)
[55]
  GI50: 4.99 µM (inactive)
[16]
  GI50: 16.1 µM (inactive)
[17]
  GI50: 3.02 µM (inactive)
[19]
  GI50: 12 µM (inactive)
[20]
  GI50: 10.5 µM (inactive)
[21]
  GI50: 3.08 µM (inactive)
[56]
  GI50: 4.58 µM (inactive)
[57]
  GI50: 14.2 µM (inactive)
[58]
  GI50: 5.08 µM (inactive)
[59]
  GI50: 4.66 µM (inactive)
[23]
  GI50: 1.62 µM (inactive)
[24]
  GI50: 3.95 µM (inactive)
[25]
  GI50: 15.7 µM (inactive)
[26]
  GI50: 4.94 µM (inactive)
[27]
  GI50: 17 µM (inactive)
[28]
  GI50: 3.18 µM (inactive)
[60]
  GI50: 7.74 µM (inactive)
[29]
  GI50: 6.89 µM (inactive)
[30]
  GI50: 4.49 µM (inactive)
[31]
  GI50: 17.5 µM (inactive)
[32]
  GI50: 6.19 µM (inactive)
[61]
  GI50: 11.6 µM (inactive)
[33]
  GI50: 1.76 µM (inactive)
[34]
  GI50: 6.12 µM (inactive)
[35]
  GI50: 12.6 µM (inactive)
[36]
  GI50: 17.5 µM (inactive)
[62]
  GI50: 10.6 µM (inactive)
[37]
  GI50: 8 µM (inactive)
[38]
  GI50: 3.24 µM (inactive)
[39]
  GI50: 4.8 µM (inactive)
[40]
  GI50: 22 µM (inactive)
[41]
  GI50: 3.01 µM (inactive)
[63]
  GI50: 16.5 µM (inactive)
[42]
  GI50: 3.46 µM (inactive)
[43]
  GI50: 1.19 µM (inactive)
[44]
  GI50: 3.83 µM (inactive)
[64]
  GI50: 2.64 µM (inactive)
[45]
  GI50: 2.77 µM (inactive)
[46]
  GI50: 9.86 µM (inactive)
[47]
  GI50: 7.21 µM (inactive)
[48]
  GI50: 6.46 µM (inactive)
[49]
  GI50: 4.95 µM (inactive)

## CN(C)c1ccc(Cc2cc3c(O)ccc(O)c3cc(Cc3ccc(N(C)C)cc3)c2=O)cc1
[50]
  GI50: 16 µM (inactive)
[51]
  GI50: 46.1 µM (inactive)
[52]
  GI50: 30.5 µM (inactive)
[1]
  GI50: 12.5 µM (inactive)
[53]
  GI50: 13.7 µM (inactive)
[2]
  GI50: 6.46 µM (inactive)
[3]
  GI50: 2.96 µM (inactive)
[4]
  GI50: 16.1 µM (inactive)
[54]
  GI50: 26.9 µM (inactive)
[8]
  GI50: 19 µM (inactive)
[9]
  GI50: 23 µM (inactive)
[10]
  GI50: 11.7 µM (inactive)
[11]
  GI50: 21.5 µM
[12]
  GI50: 3.04 µM (inactive)
[13]
  GI50: 45.7 µM (inactive)
[14]
  GI50: 3.08 µM (inactive)
[15]
  GI50: 19.2 µM (inactive)
[55]
  GI50: 44.3 µM (inactive)
[16]
  GI50: 16.1 µM (inactive)
[17]
  GI50: 2.96 µM (inactive)
[19]
  GI50: 18.6 µM (inactive)
[20]
  GI50: 17.7 µM (inactive)
[21]
  GI50: 17.5 µM (inactive)
[56]
  GI50: 17.3 µM (inactive)
[57]
  GI50: 20.1 µM (inactive)
[58]
  GI50: 15.1 µM (inactive)
[59]
  GI50: 18.8 µM (inactive)
[23]
  GI50: 2.92 µM (inactive)
[24]
  GI50: 20.3 µM (inactive)
[25]
  GI50: 24.7 µM (inactive)
[26]
  GI50: 22.4 µM (inactive)
[27]
  GI50: 37.4 µM (inactive)
[28]
  GI50: 3.73 µM (inactive)
[60]
  GI50: 27 µM (inactive)
[29]
  GI50: 14.3 µM (inactive)
[30]
  GI50: 18.1 µM (inactive)
[31]
  GI50: > 43.9 µM (inactive)
[32]
  GI50: 17.1 µM (inactive)
[61]
  GI50: 15.4 µM (inactive)
[33]
  GI50: 6.25 µM (inactive)
[34]
  GI50: 9.31 µM (inactive)
[35]
  GI50: 29.6 µM (inactive)
[36]
  GI50: 34.4 µM (inactive)
[62]
  GI50: 26.1 µM (inactive)
[37]
  GI50: 18.9 µM (inactive)
[38]
  GI50: 36.6 µM (inactive)
[39]
  GI50: 19.2 µM (inactive)
[40]
  GI50: > 100 µM (inactive)
[41]
  GI50: 28.2 µM (inactive)
[63]
  GI50: 29.4 µM (inactive)
[42]
  GI50: > 55.8 µM (inactive)
[43]
  GI50: 3.08 µM (inactive)
[44]
  GI50: 13.6 µM (inactive)
[64]
  GI50: 4.09 µM (inactive)
[45]
  GI50: 18.6 µM (inactive)
[46]
  GI50: 20 µM (inactive)
[47]
  GI50: 21.1 µM (inactive)
[48]
  GI50: 26 µM (inactive)
[49]
  GI50: 13.1 µM (inactive)
